The subject of this test is HCT116. To be noted: 72 h. The procedure, abridged:
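HCT116 cells were seeded at 250 per well in 1536-well plates and left 5 h to attach. CellTiter-Glo luminescence was scaled to vehicle (0%) and positive control (-100%), then pattern-corrected. IC50 and maximal efficacy came from four-parameter Hill fits.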

The structures appear in SMILES notation. Counter-ions that a name gives are not always drawn. Some results are limits rather than exact numbers.

The compound `Nc1ccc(S(=O)(=O)c2ccc(N)cc2)cc1` [Dapsone] showed an IC50 cell viability (ICRF193 0 nM) of more than 45.8 µM and an IC50 cell viability (ICRF193 200 nM) of more than 45.8 µM.
`CCCCCCCCCC(=O)N[C@@H](Cc1c[nH]c2ccccc12)C(=O)N[C@H](CC(N)=O)C(=O)N[C@@H](CC(=O)O)C(=O)N[C@@H]1C(=O)NCC(=O)N[C@@H](CCCN)C(=O)N[C@@H](CC(=O)O)C(=O)N[C@H](C)C(=O)N[C@@H](CC(=O)O)C(=O)NCC(=O)N[C@H](CO)C(=O)N[C@@H]([C@H](C)CC(=O)O)C(=O)N[C@@H](CC(=O)c2ccccc2N)C(=O)O[C@@H]1C` [Daptomycin]: the IC50 cell viability by setting is: (ICRF193 0 nM) more than 45.8 µM; (ICRF193 200 nM) more than 45.8 µM.
As to `C[N+](C)(C)CCCCCCCCCC[N+](C)(C)C` [Decamethonium bromide], the IC50 cell viability is more than 45.8 µM (ICRF193 0 nM) and more than 45.8 µM (ICRF193 200 nM).
With `CCCCCCCCCC(=O)O` [Decanoic acid], the IC50 cell viability by setting is: (ICRF193 0 nM) more than 45.8 µM; (ICRF193 200 nM) more than 45.8 µM.
On to `Nc1ncn([C@H]2C[C@H](O)[C@@H](CO)O2)c(=O)n1` [Decitabine], for which the IC50 cell viability was more than 45.8 µM (ICRF193 0 nM) and more than 45.8 µM (ICRF193 200 nM).
In the case of `CCCCCCCCCCOc1cc2c(O)c(C(=O)OCC)cnc2cc1OCC` [Decoquinate], the IC50 cell viability (ICRF193 0 nM) was more than 45.8 µM and the IC50 cell viability (ICRF193 200 nM) was more than 45.8 µM.
As for `Cc1c(O)c(=O)ccn1C` [Deferiprone], the IC50 cell viability runs as follows: (ICRF193 0 nM) more than 45.8 µM; (ICRF193 200 nM) more than 45.8 µM.
In the case of `CC(=O)OCC(=O)[C@@]12N=C(C)O[C@@H]1C[C@H]1[C@@H]3CCC4=CC(=O)C=C[C@]4(C)[C@H]3[C@@H](O)C[C@@]12C` [Deflazacort], the IC50 cell viability was more than 45.8 µM (ICRF193 0 nM) and more than 45.8 µM (ICRF193 200 nM).
`C[C@H](CCC(=O)O)[C@H]1CC[C@H]2[C@@H]3C(=O)C[C@@H]4CC(=O)CC[C@]4(C)[C@H]3CC(=O)[C@]12C` [Dehydrocholic acid] showed an IC50 cell viability (ICRF193 0 nM) of more than 45.8 µM and an IC50 cell viability (ICRF193 200 nM) of more than 45.8 µM.
Consider `C[C@]12CC[C@H](OS(=O)(=O)O)CC1=CC[C@@H]1[C@@H]2CC[C@]2(C)C(=O)CC[C@@H]12` [Dehydroepiandrosterone Sulfate (sodium salt)], for which the IC50 cell viability is more than 45.8 µM (ICRF193 0 nM) and more than 45.8 µM (ICRF193 200 nM).
On to `C[C@]12CC[C@H](O)CC1=CC[C@@H]1[C@@H]2CC[C@]2(C)C(=O)CC[C@@H]12` [Dehydroepiandrosterone], for which the IC50 cell viability (ICRF193 0 nM) is more than 45.8 µM and the IC50 cell viability (ICRF193 200 nM) was more than 45.8 µM.
On to `Nc1nc(-n2cc(C(=O)O)c(=O)c3cc(F)c(N4CC(O)C4)c(Cl)c32)c(F)cc1F` [Delafloxacin (meglumine)], for which the IC50 cell viability is more than 45.8 µM (ICRF193 0 nM) and more than 45.8 µM (ICRF193 200 nM).
In the case of `C[C@]1(COc2ccc(N3CCC(Oc4ccc(OC(F)(F)F)cc4)CC3)cc2)Cn2cc([N+](=O)[O-])nc2O1` [Delamanid], the IC50 cell viability by setting is: (ICRF193 0 nM) more than 45.8 µM; (ICRF193 200 nM) more than 45.8 µM.
As for `CCOC(=O)[C@H](CCc1ccccc1)N[C@@H](C)C(=O)N(CC(=O)O)C1Cc2ccccc2C1` [Delapril hydrochloride], the IC50 cell viability runs as follows: (ICRF193 0 nM) more than 45.8 µM; (ICRF193 200 nM) more than 45.8 µM.
Compound `CC(C)Nc1cccnc1N1CCN(C(=O)c2cc3cc(NS(C)(=O)=O)ccc3[nH]2)CC1` [Delavirdine] showed an IC50 cell viability (ICRF193 0 nM) of more than 45.8 µM and an IC50 cell viability (ICRF193 200 nM) of more than 45.8 µM.
As for `CN(CCCCCCCCCCN(C)C(=O)Oc1cccc([N+](C)(C)C)c1)C(=O)Oc1cccc([N+](C)(C)C)c1` [Demecarium bromide], the IC50 cell viability was more than 45.8 µM (ICRF193 0 nM) and more than 45.8 µM (ICRF193 200 nM).
As to `CC[N+](CC)(CC(=O)Nc1c(C)cccc1C)Cc1ccccc1` [Denatonium benzoate], the IC50 cell viability (ICRF193 0 nM) was more than 45.8 µM and the IC50 cell viability (ICRF193 200 nM) was more than 45.8 µM.
`CC(=O)OCC(=O)[C@H]1CC[C@H]2[C@@H]3CCC4=CC(=O)CC[C@]4(C)[C@H]3CC[C@]12C` [Deoxycorticosterone acetate] came in with an IC50 cell viability (ICRF193 0 nM) of more than 45.8 µM and an IC50 cell viability (ICRF193 200 nM) of more than 45.8 µM.
On to `CCCCNc1ccc(C(=O)OCCN(CC)CC)cc1` [Depolipon], for which the IC50 cell viability is, setting by setting: (ICRF193 0 nM) more than 45.8 µM; (ICRF193 200 nM) more than 45.8 µM.
The compound `COc1ccc(-c2cc(C(F)F)nn2-c2ccc(S(N)(=O)=O)cc2)cc1F` [Deracoxib] had an IC50 cell viability (ICRF193 0 nM) of more than 45.8 µM and an IC50 cell viability (ICRF193 200 nM) of more than 45.8 µM.
Turning to `CN1C(=O)[C@]23C[C@H]4C(C)(C)[C@]5(CNc6c5ccc5c6OC=CC(C)(C)O5)C[C@@]41CN2CC[C@@]3(C)O` [Derquantel], the IC50 cell viability is, setting by setting: (ICRF193 0 nM) more than 45.8 µM; (ICRF193 200 nM) more than 45.8 µM.
With `Clc1ccc2c(c1)CCc1cccnc1C2=C1CCNCC1` [Desloratadine], the IC50 cell viability is more than 45.8 µM (ICRF193 0 nM) and more than 45.8 µM (ICRF193 200 nM).
Consider `N=C(N)NCCC[C@@H](NC(=O)[C@@H]1CCCN1C(=O)[C@@H]1CSSCCC(=O)N[C@@H](Cc2ccc(O)cc2)C(=O)N[C@@H](Cc2ccccc2)C(=O)N[C@@H](CCC(N)=O)C(=O)N[C@@H](CC(N)=O)C(=O)N1)C(=O)NCC(N)=O` [Desmopressin (Acetate)], for which the IC50 cell viability is more than 45.8 µM (ICRF193 0 nM) and more than 45.8 µM (ICRF193 200 nM).
As to `C#C[C@]1(O)CC[C@H]2[C@@H]3CCC4=CCCC[C@@H]4[C@H]3C(=C)C[C@@]21CC` [Desogestrel], the IC50 cell viability runs as follows: (ICRF193 0 nM) more than 45.8 µM; (ICRF193 200 nM) more than 45.8 µM.
Regarding `CC1(C)O[C@@H]2C[C@H]3[C@@H]4CCC5=CC(=O)C=C[C@]5(C)[C@H]4[C@@H](O)C[C@]3(C)[C@]2(C(=O)CO)O1` [Desonide], the IC50 cell viability is, setting by setting: (ICRF193 0 nM) more than 45.8 µM; (ICRF193 200 nM) more than 45.8 µM.
In the case of `C[C@@H]1C[C@H]2[C@@H]3CCC4=CC(=O)C=C[C@]4(C)[C@@]3(F)[C@@H](O)C[C@]2(C)[C@H]1C(=O)CO` [Desoximetasone], the IC50 cell viability (ICRF193 0 nM) was more than 45.8 µM and the IC50 cell viability (ICRF193 200 nM) is more than 45.8 µM.
As for `CC(C)(C)C(=O)OCC(=O)[C@H]1CC[C@H]2[C@@H]3CCC4=CC(=O)CC[C@]4(C)[C@H]3CC[C@]12C` [Desoxycorticosterone Pivalate], the IC50 cell viability was more than 45.8 µM (ICRF193 0 nM) and more than 45.8 µM (ICRF193 200 nM).
For `Cc1cccc(Cc2c[nH]cn2)c1C` [Detomidine hydrochloride], the IC50 cell viability runs as follows: (ICRF193 0 nM) more than 45.8 µM; (ICRF193 200 nM) more than 45.8 µM.
On to `CCCCCCCCCCCCCCCC(=O)OCC(=O)[C@@]1(O)[C@H](C)C[C@H]2[C@@H]3CCC4=CC(=O)C=C[C@]4(C)[C@@]3(F)[C@@H](O)C[C@@]21C` [Dexamethasone 21-Palmitate], for which the IC50 cell viability is more than 45.8 µM (ICRF193 0 nM) and more than 45.8 µM (ICRF193 200 nM).
Turning to `C[C@@H]1C[C@H]2[C@@H]3CCC4=CC(=O)C=C[C@]4(C)[C@@]3(F)[C@@H](O)C[C@]2(C)[C@@]1(O)C(=O)COP(=O)(O)O` [Dexamethasone 21-phosphate disodium salt], the IC50 cell viability was more than 45.8 µM (ICRF193 0 nM) and more than 45.8 µM (ICRF193 200 nM).
Take `CC(=O)OCC(=O)[C@@]1(O)[C@H](C)C[C@H]2[C@@H]3CCC4=CC(=O)C=C[C@]4(C)[C@@]3(F)[C@@H](O)C[C@@]21C` [Dexamethasone acetate]: the IC50 cell viability by setting is: (ICRF193 0 nM) more than 45.8 µM; (ICRF193 200 nM) more than 45.8 µM.
Consider `C[C@@H]1C[C@H]2[C@@H]3CCC4=CC(=O)C=C[C@]4(C)[C@@]3(F)[C@@H](O)C[C@]2(C)[C@@]1(O)C(=O)COC(=O)c1ccncc1` [Dexamethasone isonicotinate], for which the IC50 cell viability is more than 45.8 µM (ICRF193 0 nM) and more than 45.8 µM (ICRF193 200 nM).
`C[C@@H]1C[C@H]2[C@@H]3CCC4=CC(=O)C=C[C@]4(C)[C@@]3(F)[C@@H](O)C[C@]2(C)[C@@]1(O)C(=O)CO` [Dexamethasone]: the IC50 cell viability is, setting by setting: (ICRF193 0 nM) more than 45.8 µM; (ICRF193 200 nM) more than 45.8 µM.
Regarding `CN(C)CC[C@@H](c1ccc(Cl)cc1)c1ccccn1` [Dexchlorpheniramine hydrochloride], the IC50 cell viability (ICRF193 0 nM) was more than 45.8 µM and the IC50 cell viability (ICRF193 200 nM) was more than 45.8 µM.
With `Cc1cccc([C@H](C)c2c[nH]cn2)c1C` [Dexmedetomidine], the IC50 cell viability is more than 45.8 µM (ICRF193 0 nM) and more than 45.8 µM (ICRF193 200 nM).
As to `CC(C)(CO)[C@@H](O)C(=O)NCCCO` [Dexpanthenol], the IC50 cell viability (ICRF193 0 nM) was more than 45.8 µM and the IC50 cell viability (ICRF193 200 nM) is more than 45.8 µM.
In the case of `CC(C)NC[C@@H](O)COc1cccc2ccccc12` [Dexpropranolol], the IC50 cell viability runs as follows: (ICRF193 0 nM) more than 45.8 µM; (ICRF193 200 nM) more than 45.8 µM.
As to `C[C@@H](CN1CC(=O)NC(=O)C1)N1CC(=O)NC(=O)C1` [Dexrazoxane hydrochloride], the IC50 cell viability by setting is: (ICRF193 0 nM) more than 45.8 µM; (ICRF193 200 nM) more than 45.8 µM.
For the compound `OC[C@H]1OC(O)[C@H](O)[C@@H](O)[C@@H]1O` (stereo partly specified) [Dextrose], the IC50 cell viability runs as follows: (ICRF193 0 nM) more than 45.8 µM; (ICRF193 200 nM) more than 45.8 µM.
On to `CCN(CC)CCOc1ccc2nc(N(C)C)sc2c1` [Diamthazole], for which the IC50 cell viability by setting is: (ICRF193 0 nM) more than 45.8 µM; (ICRF193 200 nM) more than 45.8 µM.
In the case of `CC(=O)Nc1c(I)c(NC(C)=O)c(I)c(C(=O)O)c1I` [Diatrizoic acid dihydrate], the IC50 cell viability (ICRF193 0 nM) is more than 45.8 µM and the IC50 cell viability (ICRF193 200 nM) was more than 45.8 µM.
Take `CC1=Nc2ccc(Cl)cc2S(=O)(=O)N1` [Diazoxide]: the IC50 cell viability is more than 45.8 µM (ICRF193 0 nM) and more than 45.8 µM (ICRF193 200 nM).
`CN(C)CCN1C(=O)c2ccccc2N(C)c2ccccc21` [Dibenzepin hydrochloride]: the IC50 cell viability is more than 45.8 µM (ICRF193 0 nM) and more than 45.8 µM (ICRF193 200 nM).
Turning to `c1ccc2c(c1)sc1ccccc12` [Dibenzothiophene], the IC50 cell viability (ICRF193 0 nM) is more than 45.8 µM and the IC50 cell viability (ICRF193 200 nM) is more than 45.8 µM.
For the compound `O[C@@H]([C@H](O)[C@H](O)CBr)[C@H](O)CBr` [Dibromomannitol], the IC50 cell viability was more than 45.8 µM (ICRF193 0 nM) and more than 45.8 µM (ICRF193 200 nM).
As for `CCCCOc1cc(C(=O)NCCN(CC)CC)c2ccccc2n1` [Dibucaine], the IC50 cell viability is, setting by setting: (ICRF193 0 nM) more than 45.8 µM; (ICRF193 200 nM) more than 45.8 µM.
Compound `CCCCCCCCCCCC(=O)[O][Sn]([CH2]CCC)([CH2]CCC)[O]C(=O)CCCCCCCCCCC` [Dibutyltin dilaurate] displayed an IC50 cell viability (ICRF193 0 nM) of more than 45.8 µM and an IC50 cell viability (ICRF193 200 nM) of more than 45.8 µM.
In the case of `CCOC(=O)OCC/C(SC(=O)OCC)=C(\C)N(C=O)Cc1cnc(C)nc1N` [Dicethiamine hydrochloride], the IC50 cell viability by setting is: (ICRF193 0 nM) more than 45.8 µM; (ICRF193 200 nM) more than 45.8 µM.

The values above are taken from the supplement of paper PMC12137928.
